Test results as given in ChEMBL document CHEMBL3885881, “DrugMatrix”.

Species: Rattus norvegicus
Assay: DrugMatrix - Regimen: Daily Repeat
Assay type: toxicity, organism-based, Sprague-Dawley
Set-up: regimen Daily Repeat, gender Male, age 6-8 weeks
Conditions: in vivo, po, route oral GAVAGE; for ALBUMIN / ALKALINE PHOSPHATASE / ASPARTATE AMINOTRANSFERASE / BLOOD UREA NITROGEN / CARBON DIOXIDE / CHLORIDE / CHOLESTEROL / CREATINE PHOSPHOKINASE / CREATININE / GLUCOSE / LACTATE DEHYDROGENASE / LIPASE / PHOSPHORUS / POTASSIUM / SODIUM / TOTAL BILIRUBIN / TOTAL PROTEIN / URIC ACID / ALANINE AMINOTRANSFERASE: tissue Plasma; for ABSOLUTE BASOPHIL / ABSOLUTE EOSINOPHIL / ABSOLUTE LYMPHOCYTE / ABSOLUTE MONOCYTE / ABSOLUTE SEGMENTED NEUTROPHIL / BASOPHIL / EOSINOPHIL / ERYTHROCYTE COUNT / HEMATOCRIT / HEMOGLOBIN / LEUKOCYTE COUNT / LYMPHOCYTE / MEAN CORPUSCULAR HEMOGLOBIN / MEAN CORPUSCULAR HEMOGLOBIN CONCENTRATION / MEAN CORPUSCULAR VOLUME / MONOCYTE / NEUTROPHIL / NUCLEATED RED BLOOD CELLS / PLATELET COUNT: tissue Blood
[1] = 54 mg/kg, 120 h, dose level M1, time 5 day, vehicle 100 % WATER
[2] = 160 mg/kg, 72 h, dose level High, time 3 day, […]
[3] = 160 mg/kg, 120 h, dose level High, time 5 day, […]

Cn1cnc([N+](=O)[O-])c1Sc1ncnc2nc[nH]c12 [AZATHIOPRINE]
ALBUMIN [1]: 4.6 G/DL | ALKALINE PHOSPHATASE [1]: 184.33 u/L | ASPARTATE AMINOTRANSFERASE [1]: 65.33 u/L | BLOOD UREA NITROGEN [1]: 14 mg/dL | CARBON DIOXIDE [1]: 33 mmol/L | CHLORIDE [1]: 96.33 MEQ/L | CHOLESTEROL [1]: 91.33 mg/dL | CREATINE PHOSPHOKINASE [1]: 188.33 u/L | CREATININE [1]: 0.26 mg/dL | GLUCOSE [1]: 159.67 mg/dL | LACTATE DEHYDROGENASE [1]: 98.33 u/L | LIPASE [1]: 14 u/L | PHOSPHORUS [1]: 9.43 mg/dL | POTASSIUM [1]: 5.71 MEQ/L | SODIUM [1]: 143.23 MEQ/L | TOTAL BILIRUBIN [1]: 0.13 mg/dL | TOTAL PROTEIN [1]: 6.97 G/DL | URIC ACID [1]: 0.23 mg/dL | ABSOLUTE BASOPHIL [2]: 0 CELLS/uL | ABSOLUTE EOSINOPHIL [2]: 0 CELLS/uL | ABSOLUTE LYMPHOCYTE [2]: 4093.67 CELLS/uL | ABSOLUTE MONOCYTE [2]: 37.33 CELLS/uL | ABSOLUTE SEGMENTED NEUTROPHIL [2]: 535.67 CELLS/uL | BASOPHIL [2]: 0% | EOSINOPHIL [2]: 0% | ERYTHROCYTE COUNT [2]: 5.12 x10E6/uL | HEMATOCRIT [2]: 34.5% | HEMOGLOBIN [2]: 13.07 G/DL | LEUKOCYTE COUNT [2]: 4.67 x10E3/uL | LYMPHOCYTE [2]: 87% | MEAN CORPUSCULAR HEMOGLOBIN [2]: 25.6 pg | MEAN CORPUSCULAR HEMOGLOBIN CONCENTRATION [2]: 37.87 G/DL | MEAN CORPUSCULAR VOLUME [2]: 67.47 fL | MONOCYTE [2]: 0.67% | NEUTROPHIL [2]: 12.33% | NUCLEATED RED BLOOD CELLS [2]: 0 /100WBC | PLATELET COUNT [2]: 1028 x10E3/uL | ALANINE AMINOTRANSFERASE [2]: 39.33 u/L | ALBUMIN [2]: 3.87 G/DL | ALKALINE PHOSPHATASE [2]: 207.67 u/L | ASPARTATE AMINOTRANSFERASE [2]: 81.33 u/L | BLOOD UREA NITROGEN [2]: 10.33 mg/dL | CARBON DIOXIDE [2]: 36 mmol/L | CHLORIDE [2]: 107.67 MEQ/L | CHOLESTEROL [2]: 84.67 mg/dL | CREATINE PHOSPHOKINASE [2]: 296.67 u/L | CREATININE [2]: 0.13 mg/dL | GLUCOSE [2]: 192.33 mg/dL | LACTATE DEHYDROGENASE [2]: 87.67 u/L | LIPASE [2]: 11.33 u/L | PHOSPHORUS [2]: 7.6 mg/dL | POTASSIUM [2]: 5.08 MEQ/L | SODIUM [2]: 138.17 MEQ/L | TOTAL BILIRUBIN [2]: 0.13 mg/dL | TOTAL PROTEIN [2]: 5.63 G/DL | URIC ACID [2]: 0.3 mg/dL | ABSOLUTE BASOPHIL [3]: 0 CELLS/uL | ABSOLUTE EOSINOPHIL [3]: 0 CELLS/uL | ABSOLUTE LYMPHOCYTE [3]: 1710 CELLS/uL | ABSOLUTE MONOCYTE [3]: 38 CELLS/uL | ABSOLUTE SEGMENTED NEUTROPHIL [3]: 152 CELLS/uL | BASOPHIL [3]: 0% | EOSINOPHIL [3]: 0% | ERYTHROCYTE COUNT [3]: 7.48 x10E6/uL | HEMATOCRIT [3]: 45.7% | HEMOGLOBIN [3]: 15.7 G/DL | LEUKOCYTE COUNT [3]: 1.9 x10E3/uL | LYMPHOCYTE [3]: 90% | MEAN CORPUSCULAR HEMOGLOBIN [3]: 21 pg | MEAN CORPUSCULAR HEMOGLOBIN CONCENTRATION [3]: 34.4 G/DL | MEAN CORPUSCULAR VOLUME [3]: 61.1 fL | MONOCYTE [3]: 2% | NEUTROPHIL [3]: 8% | NUCLEATED RED BLOOD CELLS [3]: 0 /100WBC | PLATELET COUNT [3]: 666 x10E3/uL | ALANINE AMINOTRANSFERASE [3]: 237 u/L | ALBUMIN [3]: 2.8 G/DL | ALKALINE PHOSPHATASE [3]: 281 u/L | ASPARTATE AMINOTRANSFERASE [3]: 835 u/L | BLOOD UREA NITROGEN [3]: 15 mg/dL | CARBON DIOXIDE [3]: 36 mmol/L | CHLORIDE [3]: 106 MEQ/L | CHOLESTEROL [3]: 13 mg/dL | CREATINE PHOSPHOKINASE [3]: 348 u/L | CREATININE [3]: 0.38 mg/dL | GLUCOSE [3]: 192 mg/dL | LACTATE DEHYDROGENASE [3]: 280 u/L | LIPASE [3]: 10 u/L | PHOSPHORUS [3]: 6.3 mg/dL | POTASSIUM [3]: 4.73 MEQ/L | SODIUM [3]: 147 MEQ/L | TOTAL BILIRUBIN [3]: 0.2 mg/dL | TOTAL PROTEIN [3]: 3.4 G/DL | URIC ACID [3]: 0.2 mg/dL
